Data published in patent US4058608A, “Method of treating fungus-infected plants with phenylazocyanoacetic ester derivatives” (Chinoin Gyogyszer es Vegyeszeti Termekek Gyara RT, priority 1974, dated 1977).

Experiments:
[1] = test system: mice; assay: toxicity tests on mice; assay type: in vivo; conditions: single treatment, one week observation
Experimental: (§1) 5, 10 or 20% of active agent were suspended in 0.1% agar gel, and the obtained homogeneous suspensions were injected intraperitoneally into mice, or were administered into the stomach of the animals via a stomach tube. The animals were kept under observation for one week after a single treatment, and the toxicity data were evaluated on the basis of the percentage deaths observed in this period.

[2] = toxicity tests on mice; assay type: in vivo; conditions: mouse, in vivo, ip, intraperitoneal administration, calculated from LD0 and LD100
Experimental: as §1

[3] = oral administration (stomach tube)

## CCCCOC(=O)C(C#N)N=Nc1cccc(Cl)c1 (centres unmarked) [n-C4 H9 -- H Cl H]
[1]; intraperitoneal administration
  LD0: 500 mg/kg
  LD100: 1000 mg/kg
[1]; [3]
  LD0: 6000 mg/kg
  LD100: 6000 mg/kg
[2]
  LD50 at 168 h: 800 mg/kg

## CC(C)OC(=O)C(C#N)N=Nc1cccc(Cl)c1 (centres unmarked) [i-C3 H7 -- H Cl H]
[1]; intraperitoneal administration
  LD0: 300 mg/kg
  LD100: 800 mg/kg
[1]; [3]
  LD0: 6000 mg/kg
  LD100: 6000 mg/kg
[2]
  LD50 at 168 h: 500 mg/kg

## CCCOC(=O)C(C#N)N=Nc1ccc(Cl)cc1 (centres unmarked) [n-C3 H7 -- H H Cl]
[1]; intraperitoneal administration
  LD0: 400 mg/kg
  LD100: 1000 mg/kg
[1]; [3]
  LD0: 6000 mg/kg
  LD100: 6000 mg/kg
[2]
  LD50 at 168 h: 600 mg/kg

## CCCCOC(=O)C(C#N)N=Nc1ccc([N+](=O)[O-])cc1 (centres unmarked) [n-C4 H9 -- H H NO2 --]
[1]; intraperitoneal administration
  LD0: 400 mg/kg
  LD100: 800 mg/kg
[1]; [3]
  LD0: 6000 mg/kg
  LD100: 6000 mg/kg
[2]
  LD50 at 168 h: 600 mg/kg

## CCOC(=O)C(C#N)N=Nc1cccc(Cl)c1 (centres unmarked) [C2 H5 -- H Cl H]
[1]; intraperitoneal administration
  LD0: 200 mg/kg
  LD100: 600 mg/kg
[1]; [3]
  LD0: 6000 mg/kg
  LD100: 6000 mg/kg
[2]
  LD50 at 168 h: 400 mg/kg

## CCCCOC(=O)C(C#N)N=Nc1ccc(Cl)cc1 (centres unmarked) [n-C4 H9 -- H H Cl]
[1]; intraperitoneal administration
  LD0: 500 mg/kg
  LD100: 1000 mg/kg
[1]; [3]
  LD0: 6000 mg/kg
  LD100: 6000 mg/kg
[2]
  LD50 at 168 h: 800 mg/kg

## CCOC(=O)C(C#N)N=Nc1ccc(Cl)cc1 (centres unmarked) [C2 H5 -- H H Cl]
[1]; intraperitoneal administration
  LD0: 200 mg/kg
  LD100: 600 mg/kg
[1]; [3]
  LD0: 6000 mg/kg
  LD100: 6000 mg/kg
[2]
  LD50 at 168 h: 400 mg/kg

## CC(C)OC(=O)C(C#N)N=Nc1ccc(Cl)cc1 (centres unmarked) [i-C3 H7 -- H H Cl]
[1]; intraperitoneal administration
  LD0: 400 mg/kg
  LD100: 1000 mg/kg
[1]; [3]
  LD0: 6000 mg/kg
  LD100: 6000 mg/kg
[2]
  LD50 at 168 h: 600 mg/kg

## CCCOC(=O)C(C#N)N=Nc1cccc(Cl)c1 (centres unmarked) [n-C3 H7 -- H Cl H]
[1]; intraperitoneal administration
  LD0: 300 mg/kg
  LD100: 800 mg/kg
[1]; [3]
  LD0: 6000 mg/kg
  LD100: 6000 mg/kg
[2]
  LD50 at 168 h: 500 mg/kg

## CCCCOC(=O)C(C#N)N=Nc1cccc([N+](=O)[O-])c1 (centres unmarked) [n-C4 H9 -- H NO2 -- H]
[1]; intraperitoneal administration
  LD0: 400 mg/kg
  LD100: 800 mg/kg
[1]; [3]
  LD0: 6000 mg/kg
  LD100: 6000 mg/kg
[2]
  LD50 at 168 h: 600 mg/kg
